Experiment [1] concerns the target T1, procaspase-3 (Homo sapiens (Human), UniProt P42574). The experiment in a line: In vitro activation of purified procaspase-3 (activation curves, Ac-DEVD-pNA). In kind it is biochemical. As to conditions: for EC50: Table 3, read-out: EC50 (μM) for procaspase-3 activation; for Activity (direct activation of purified procaspase-3 in vitro): Table 2. The method, then: Activation curves. […] The plate was read every 2 minutes at 405 nm for 2 hours in a Spectra Max Plus 384 well plate reader. The slope of the linear portion for each well was determined and the fold increase in activation from non-treated control wells was calculated. […]

In experiment [2] the test system is HL-60 cells. The experiment in a line: Cell death induction IC50 (MTS) in HL-60. In kind it is cell-based, human.
For experiment [3], the system named is HL-60 cells. Description: Apoptosis induction assay in HL-60 cells, 72 hrs (Table 6). In kind it is cell-based. The protocol: Compounds DX1-DX17 were tested using the HL-60 cell line for the ability to effect apoptosis, and IC50 values were determined. Activity levels of compounds from assays of 72 hrs duration with HL-60 cells are shown in Table 6 and along with structures in FIG. 12.

The subject of another experiment is HL-60 cell line. The experiment in a line: IC50 of PAC-1 derivatives in HL-60 cell line (Table 5). It is filed as cell-based. As to conditions: for Fold better than PAC-1: HL-60 IC50 relative to PAC-1; for IC50: Homo sapiens, HL-60, Table 5. The text has this:
The results are indicated in Table 5 (where L- and R-designations refer to structures shown in the AX and BX series above, respectively).

Experiment [4] addresses T1, procaspase-3. Description: Western blot of in vitro procaspase-3 activation by DX compounds. As to conditions: 50 micromolar compound, about 35 nanomolar procaspase-3, 8 hr. In kind it is biochemical. The method, then: Certain compounds were also tested for the ability to effect in vitro activation of procaspase-3.
Experiment [5] concerns B16-F10 melanoma cell line. Description: Cell death IC50 (MTS) in B16-F10. In kind it is cell-based. Conditions: etoposide, 24 hours; read-out: IC50 for inducing death, B16-F10.
Another experiment deals with U-937. The experiment in a line: Cell death IC50 (MTS) in U-937. It is filed as cell-based. As to conditions: etoposide, 24 hours; read-out: IC50 for inducing death, U-937.
A further experiment deals with PC-12. Description: Cell death IC50 (MTS) in PC-12. It is filed as cell-based. As to conditions: etoposide, 24 hours; read-out: IC50 for inducing death, PC-12.
A further experiment has as its system SK-N-SH. Description: Cell death IC50 (MTS) in SK-N-SH. In kind it is cell-based. As to conditions: etoposide, 24 hours; read-out: IC50 for inducing death, SK-N-SH.
The subject of experiment [6] is CRL-1872 melanoma cell line. The experiment in a line: Cell death IC50 (MTS) in CRL-1872. It is filed as cell-based. As to conditions: etoposide, 24 hours; read-out: IC50 for inducing death, CRL-1872.
The subject of experiment [7] is Hs 578t breast cancer cell line. The experiment in a line: Cell death IC50 (MTS) in Hs 578t. In kind it is cell-based. Conditions: etoposide, 24 hours; read-out: IC50 for inducing death, Hs 578t.
Experiment [8] concerns UACC-62 melanoma cell line. Description: Cell death IC50 (MTS) in UACC-62. Conditions: etoposide, 24 hours; read-out: IC50 for inducing death, UACC-62. In kind it is cell-based.
Experiment [9] relates to NCI-H226 lung cancer cell line. The experiment in a line: Cell death IC50 (MTS) in NCI-H226. It is filed as cell-based. As to conditions: etoposide, 24 hours; read-out: IC50 for inducing death, NCI-H226.
Setting [10] is: Homo sapiens, HL-60, Table 3, read-out: IC50 (μM) for death induction in HL-60 cells.

The structures appear in SMILES notation.

The results in this text go back to US10166229B2, “Compounds and methods for the treatment of cancer” (The Board of Trustees of the University of Illinois, priority 2005, dated 2019).

T1 sequence (P42574 whole entry): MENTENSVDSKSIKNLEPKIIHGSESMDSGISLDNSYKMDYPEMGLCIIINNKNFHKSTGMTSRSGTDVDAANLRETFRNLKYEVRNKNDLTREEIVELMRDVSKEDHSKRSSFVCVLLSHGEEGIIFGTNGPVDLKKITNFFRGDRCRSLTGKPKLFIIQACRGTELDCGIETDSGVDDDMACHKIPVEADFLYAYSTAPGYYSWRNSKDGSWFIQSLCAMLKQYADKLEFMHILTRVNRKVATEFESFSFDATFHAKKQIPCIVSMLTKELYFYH

With `C/C=N/NC(=O)CN1CCN(Cc2ccccc2)CC1`, the EC50 at procaspase-3 [1] was > 50 µM. In addition, in the experiment with HL-60 cells [2] (setting [10]), the IC50 was > 100 µM.
Take `O=C(CN1CCN(Cc2ccccc2)CC1)N/N=C/c1ccccc1O` [de-allyl PAC-1]: the midpoint of inhibition in the experiment with HL-60 cells [3] (Homo sapiens), the IC50, lay at 8.7 µM.
As for `C=CCc1cccc(/C=N/NC(=O)CN2CCN(Cc3ccc(OCc4ccccc4)c(OCc4ccccc4)c3)CC2)c1O` [Compound L09R03], in the experiment with HL-60 cell line, the “Fold better than PAC-1” value is 11.3-fold and 4.82 µM corresponded to half-maximal inhibition (IC50).
For `c1ccc(CN2CCNCC2)cc1` [drawing 33], the EC50 on procaspase-3 [1] was > 50 µM. For the same compound, in the experiment on HL-60 cells [2] (setting [10]), the IC50 is > 100 µM.
With `C=CCc1cccc(/C=N/NC(=O)CN2CCC(Cc3ccccc3)CC2)c1O` [DX11], the “in vitro activation of procaspase-3 (Western blot) relative to control” value on procaspase-3 [4] is reported as “substantial activity levels”. In the experiment with HL-60 cells [3], this compound yielded an IC50 of 3.2 µM.
`c1ccc(CN2CCNCC2)cc1` [Compound 2]: on procaspase-3 [1], the “Activity (direct activation of purified procaspase-3 in vitro)” value (from here on “Activity”) is “Inactive”.
Take `CN1CCN(CC(=O)N/N=C/c2ccccc2O)CC1` [Compound 6]: the “Activity” value at procaspase-3 [1] is on record as “Inactive”.
For `O=C(CN1CCN(Cc2ccccc2)CC1)N/N=C/c1ccccc1` [Compound 7], the “Activity” value on procaspase-3 [1] is given as “Inactive”.
On to `CC(C)(C)c1cc(/C=N/NC(=O)CN2CCN(Cc3ccc(OCc4ccccc4)c(OCc4ccccc4)c3)CC2)c(O)c(C(C)(C)C)c1` [Compound L09R06], for which, in the experiment on HL-60 cell line, the “Fold better than PAC-1” value was 13.1-fold and half-maximal inhibition (IC50) required 4.17 µM.
With `CCOC(=O)CN1CCN(Cc2ccccc2)CC1`, the EC50 on procaspase-3 [1] is > 50 µM. In addition, the IC50 in the experiment on HL-60 cells [2] (setting [10]) was > 100 µM.
As for `NNC(=O)CN1CCN(Cc2ccccc2)CC1` [drawing 29], the EC50 on procaspase-3 [1] is > 50 µM. Further, the IC50 in the experiment with HL-60 cells [2] (setting [10]) was > 100 µM.
Take `O=C(CN1CCN(Cc2ccc(OCc3ccccc3)c(OCc3ccccc3)c2)CC1)N/N=C/c1c(O)ccc2ccccc12` [Compound L09R08]: in the experiment with HL-60 cell line, the “Fold better than PAC-1” value is reported as 22.6-fold and the midpoint of inhibition, the IC50, lay at 2.42 µM.
Regarding `O=C(CN1CCNCC1)N/N=C/c1ccccc1O`, the EC50 at procaspase-3 [1] is > 50 µM. In addition, the IC50 in the experiment on HL-60 cells [2] (setting [10]) was > 100 µM.
As for `CC(C)(C)c1cc(/C=N/NC(=O)CN2CCN(Cc3ccc(CCc4ccccc4)cc3)CC2)c(O)c(C(C)(C)C)c1` [Compound L08R06], in the experiment on HL-60 cell line, the “Fold better than PAC-1” value is given as 10.3-fold and the midpoint of inhibition, the IC50, lay at 5.31 µM.
Regarding `O=C(CN1CCN(Cc2ccccc2)CC1)N/N=C/c1ccccc1` [drawing 26], on procaspase-3 [1], the EC50 is > 50 µM. In the experiment on HL-60 cells [2] (setting [10]), the IC50 is > 100 µM.
With `CC(C)(C)c1ccc(CN2CCN(CC(=O)N/N=C/c3cc(C(C)(C)C)cc(C(C)(C)C)c3O)CC2)cc1` [Compound L02R06], in the experiment with HL-60 cell line, the “Fold better than PAC-1” value is 8.4-fold and inhibition was half-maximal at 6.53 µM (IC50).
Regarding `NNC(=O)CN1CCN(Cc2ccccc2)CC1` [Compound 4], on procaspase-3 [1], the “Activity” value was “Inactive”.
Take `CC(C)(C)c1cc(/C=N/NC(=O)CN2CCN(Cc3ccccc3)CC2)c(O)c(C(C)(C)C)c1` [Compound L01R06]: in the experiment with HL-60 cell line, the “Fold better than PAC-1” value is reported as 9.7-fold and half-maximal inhibition (IC50) was put at 5.63 µM.
Regarding `C=CCc1cccc(/C=N/NC(=O)CN2CCN(Cc3ccc(C(C)(C)C)cc3)CC2)c1O` [Compound L02R03], in the experiment with HL-60 cell line, the “Fold better than PAC-1” value is 12.6-fold and the IC50 is 4.34 µM.
`c1ccc(CN2CCN(Cc3ccccc3)CC2)cc1`: the EC50 on procaspase-3 [1] was > 50 µM. Further, the IC50 with HL-60 cells [2] (setting [10]) was > 100 µM.
In the case of `COc1cc([C@@H]2c3cc4c(cc3[C@@H](O[C@@H]3O[C@@H]5CO[C@@H](C)O[C@H]5[C@H](O)[C@H]3O)[C@H]3COC(=O)[C@H]23)OCO4)cc(OC)c1O` [etoposide], the IC50 in experiment [5] is > 50 µM; with U-937, < 1000 nM; in the experiment with HL-60 cells [2] (etoposide, 24 hours, read-out: IC50 for inducing death, HL-60), < 1 µM; in the experiment on PC-12 it was < 1000 nM; in the experiment on SK-N-SH, < 1000 nM; in [6], > 50 µM. Further, the IC50 in experiment [7], in experiment [8] and in experiment [9] was > 50 µM each time.
`CCOC(=O)CN1CCNCC1`: at procaspase-3 [1], the EC50 is > 50 µM. Also, the IC50 in the experiment on HL-60 cells [2] (setting [10]) is > 100 µM.
